According to patent US12077503B2, “Substituted cyclic amides and their use as herbicides” (FMC CORPORATION, priority 2015, dated 2024):

Legend:
Format in all cases: in vivo
[1] = test system: rice (Oryra sativa); assay: Test B flooded paddy test; details: Oryza sativa, 250 g ai/ha, Flood; 0 to 100 scale where 0 is no effect and 100 is complete control; read-out: Rice plant response rating
Outline: (§1)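 2-leaf plants; pots flooded 3 cm over soil; cpd added to paddy water; depth held; greenhouse 13–15 d; visual rating vs controls, 0 = no effect, 100 = complete control.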

[2] = test system: sedge, umbrella (small-flower umbrella sedge, Cyperus difformis); assay: Test B flooded paddy test; details: Cyperus difformis, 250 g ai/ha, Flood; 0 to 100 scale where 0 is no effect and 100 is complete control; read-out: Sedge, Umbrella plant response rating
Outline: as §1

[3] = test system: barnyardgrass (Echinochloa crus-galli); assay: Test B flooded paddy test; details: Echinochloa crus-galli, 250 g ai/ha, Flood; 0 to 100 scale where 0 is no effect and 100 is complete control; read-out: Barnyardgrass plant response rating
Outline: as §1

[4] = test system: ducksalad (Heteranthera limosa); assay: Test B flooded paddy test; details: Heteranthera limosa, 250 g ai/ha, Flood; 0 to 100 scale where 0 is no effect and 100 is complete control; read-out: Ducksalad plant response rating
Outline: as §1

[5] = test system: pigweed (Amaranthus retroflexus); assay: Test A postemergence; details: Amaranthus retroflexus, post-emergence, 240 h; for pest or weed control at 125 g/ha: 125 g ai/ha, visual injury vs untreated controls after approx. 10 d, 0 = no effect, 100 = complete control, read-out: Pigweed plant response rating (0 to 100 scale); for pest or weed control at 500 g/ha: 500 g ai/ha
Outline: (§2)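 Compounds were formulated in a non-phytotoxic solvent mixture with surfactant and applied as a preemergence directed soil spray after seeding, or sprayed postemergence over plants 2 to 10 cm tall at the one- to two-leaf stage. Evaluation after about 10 d compared treated with untreated controls, using a scale from 0 (no effect) to 100 (complete control).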

[6] = test system: ryegrass, Italian (Italian ryegrass, Lolium multiflorum); assay: Test A postemergence; details: Lolium multiflorum, post-emergence, 240 h; for pest or weed control at 125 g/ha: 125 g ai/ha, visual injury vs untreated controls after approx. 10 d, 0 = no effect, 100 = complete control, read-out: Ryegrass, Italian plant response rating (0 to 100 scale); for pest or weed control at 500 g/ha: 500 g ai/ha
Outline: as §2

[7] = test system: wheat (Triticum aestivum); assay: Test A postemergence; details: Triticum aestivum, post-emergence, 240 h; for plant injury at 125 g/ha: 125 g ai/ha, postemergence, visual injury vs untreated controls after approx. 10 d, 0 = no effect, 100 = complete control, read-out: Wheat plant response rating (0 to 100 scale); for plant injury at 500 g/ha: Postemergence, 500 g ai/ha, visual injury, 0 to 100 scale (0 no effect, 100 complete control), approx. 10 d, read-out: Plant response rating, Wheat
Outline: as §2

[8] = test system: corn (Zea mays); assay: Test A postemergence; details: Zea mays, post-emergence, 240 h; for plant injury at 125 g/ha: 125 g ai/ha, visual injury vs untreated controls after approx. 10 d, 0 = no effect, 100 = complete control, read-out: Corn plant response rating (0 to 100 scale); for plant injury at 125 g/ha / plant injury at 500 g/ha: postemergence; for plant injury at 500 g/ha / Corn plant response rating (crop injury, 0 = no effect, 100 = complete kill) at 500 g/ha: 500 g ai/ha; for plant injury at 500 g/ha: 0 to 100 scale, 0 is no effect, 100 is complete control, read-out: Corn plant response rating; for Corn plant response rating (crop injury, 0 = no effect, 100 = complete kill) at 500 g/ha: Postemergence, visual injury, 0 to 100 scale (0 no effect, 100 complete control), approx. 10 d
Outline: as §2

[9] = test system: pigweed (Amaranthus retroflexus); assay: Test A preemergence; details: Amaranthus retroflexus, pre-emergence, 240 h, preemergence, 0 to 100 scale where 0 is no effect and 100 is complete control, read-out: Pigweed plant response rating; for pest or weed control at 125 g/ha: 125 g ai/ha, visual injury rating, approximately 10 d; for pest or weed control at 500 g/ha: 500 g ai/ha
[10] = test system: giant foxtail (Setaria faberii); assay: Test A preemergence; details: Setaria faberi, pre-emergence, 240 h, preemergence, 0 to 100 scale where 0 is no effect and 100 is complete control, read-out: Foxtail, Giant plant response rating; for pest or weed control at 125 g/ha: 125 g ai/ha, visual injury rating, approximately 10 d; for pest or weed control at 500 g/ha: 500 g ai/ha
Outline: as §2

[11] = test system: ryegrass, Italian (Italian ryegrass, Lolium multiflorum); assay: Test A preemergence; details: Lolium multiflorum, pre-emergence, 240 h, preemergence, 0 to 100 scale where 0 is no effect and 100 is complete control, read-out: Ryegrass, Italian plant response rating; for pest or weed control at 125 g/ha: 125 g ai/ha, visual injury rating, approximately 10 d; for pest or weed control at 500 g/ha: 500 g ai/ha
Outline: as §2

[12] = test system: barnyardgrass (Echinochloa crus-galli); assay: Test A preemergence; details: Echinochloa crus-galli, pre-emergence, 240 h, preemergence, 0 to 100 scale where 0 is no effect and 100 is complete control, read-out: Barnyardgrass plant response rating; for pest or weed control at 125 g/ha: 125 g ai/ha, visual injury rating, approximately 10 d; for pest or weed control at 500 g/ha: 500 g ai/ha
Outline: as §2

[13] = test system: ragweed (common ragweed, Ambrosia elatior); assay: Test A preemergence; details: Ambrosia artemisiifolia, pre-emergence, 240 h, preemergence, 0 to 100 scale where 0 is no effect and 100 is complete control, read-out: Ragweed plant response rating; for pest or weed control at 125 g/ha: 125 g ai/ha, visual injury rating, approximately 10 d; for pest or weed control at 500 g/ha: 500 g ai/ha
Outline: as §2

[14] = test system: Kochia (Kochia scoparia); assay: Test A preemergence; details: Bassia scoparia, pre-emergence, 240 h, preemergence, 0 to 100 scale where 0 is no effect and 100 is complete control, read-out: Kochia plant response rating; for pest or weed control at 125 g/ha: 125 g ai/ha, visual injury rating, approximately 10 d; for pest or weed control at 500 g/ha: 500 g ai/ha
Outline: as §2

[15] = postemergence, 0 to 100 scale, 0 is no effect, 100 is complete control, read-out: Pigweed plant response rating
[16] = postemergence, 0 to 100 scale, 0 is no effect, 100 is complete control, read-out: Ryegrass, Italian plant response rating
[17] = Postemergence, visual injury, 0 to 100 scale (0 no effect, 100 complete control), approx. 10 d, read-out: Plant response rating, Pigweed
[18] = Postemergence, visual injury, 0 to 100 scale (0 no effect, 100 complete control), approx. 10 d, read-out: Plant response rating, Ryegrass, Italian

Structure (SMILES): O=C1NC[C@H](c2cccc(C(F)(F)F)c2)C1C(=O)Nc1c(F)cccc1CO (stereo partly drawn) [Compound 1240]
- pest or weed control at 250 g/ha [1]: 0%
- pest or weed control at 250 g/ha [2]: 0%
- pest or weed control at 250 g/ha [3]: 0%
- pest or weed control at 250 g/ha [4]: 0%
- pest or weed control at 125 g/ha ([5]; postemergence): 0%
- pest or weed control at 500 g/ha [5, 15]: 0%
- pest or weed control at 125 g/ha ([6]; postemergence): 0%
- pest or weed control at 500 g/ha [6, 16]: 0%
- plant injury at 125 g/ha [7]: 0%
- plant injury at 125 g/ha [8]: 0%
- plant injury at 500 g/ha [8]: 0%
- pest or weed control at 125 g/ha [9]: 0%
- pest or weed control at 500 g/ha [9]: 0%
- pest or weed control at 125 g/ha [10]: 0%
- pest or weed control at 500 g/ha [10]: 0%
- pest or weed control at 125 g/ha [11]: 0%
- pest or weed control at 500 g/ha [11]: 0%
- pest or weed control at 125 g/ha [12]: 0%
- pest or weed control at 500 g/ha [12]: 0%
- pest or weed control at 125 g/ha [13]: 0%
- pest or weed control at 500 g/ha [13]: 0%
- pest or weed control at 125 g/ha [14]: 0%
- pest or weed control at 500 g/ha [14]: 0%

Structure (SMILES): O=C1NC[C@H](c2cccc(C(F)(F)F)c2)C1C(=O)Nc1ccccc1CO (stereo partly drawn) [Compound 1244]
- pest or weed control at 250 g/ha [1]: 0%
- pest or weed control at 250 g/ha [2]: 0%
- pest or weed control at 250 g/ha [3]: 20%
- pest or weed control at 250 g/ha [4]: 30%
- pest or weed control at 125 g/ha ([5]; postemergence): 0%
- pest or weed control at 500 g/ha [5, 15]: 0%
- pest or weed control at 125 g/ha ([6]; postemergence): 0%
- pest or weed control at 500 g/ha [6, 16]: 30%
- plant injury at 125 g/ha [7]: 0%
- plant injury at 125 g/ha [8]: 0%
- plant injury at 500 g/ha [8]: 40%
- pest or weed control at 125 g/ha [9]: 0%
- pest or weed control at 500 g/ha [9]: 0%
- pest or weed control at 125 g/ha [10]: 90%
- pest or weed control at 500 g/ha [10]: 90%
- pest or weed control at 125 g/ha [11]: 0%
- pest or weed control at 500 g/ha [11]: 50%
- pest or weed control at 125 g/ha [12]: 80%
- pest or weed control at 500 g/ha [12]: 90%
- pest or weed control at 125 g/ha [13]: 0%
- pest or weed control at 500 g/ha [13]: 0%
- pest or weed control at 125 g/ha [14]: 0%
- pest or weed control at 500 g/ha [14]: 0%

Structure (SMILES): CCc1ccc([C@H]2CNC(=O)[C@@H]2C(=O)Nc2c(F)cccc2F)cc1 [Compound 1248]
- pest or weed control at 250 g/ha [1]: 0%
- pest or weed control at 250 g/ha [2]: 0%
- pest or weed control at 250 g/ha [3]: 15%
- pest or weed control at 250 g/ha [4]: 70%
- pest or weed control at 125 g/ha ([5]; postemergence): 0%
- pest or weed control at 500 g/ha [5, 17]: 0%
- pest or weed control at 125 g/ha ([6]; postemergence): 0%
- pest or weed control at 500 g/ha [6, 18]: 0%
- plant injury at 125 g/ha [7]: 0%
- plant injury at 500 g/ha [7]: 0%
- plant injury at 125 g/ha [8]: 0%
- Corn plant response rating (crop injury, 0 = no effect, 100 = complete kill) at 500 g/ha [8]: 0%
- pest or weed control at 125 g/ha [9]: 0%
- pest or weed control at 500 g/ha [9]: 0%
- pest or weed control at 125 g/ha [10]: 0%
- pest or weed control at 500 g/ha [10]: 50%
- pest or weed control at 125 g/ha [11]: 0%
- pest or weed control at 500 g/ha [11]: 0%
- pest or weed control at 125 g/ha [12]: 70%
- pest or weed control at 500 g/ha [12]: 90%
- pest or weed control at 125 g/ha [13]: 0%
- pest or weed control at 500 g/ha [13]: 0%
- pest or weed control at 125 g/ha [14]: 0%
- pest or weed control at 500 g/ha [14]: 0%

Structure (SMILES): CN1C[C@H](c2ccc(F)c(C#N)c2)[C@@H](C(=O)Nc2cccc(F)c2F)C1=O [Compound 1255]
- pest or weed control at 250 g/ha [1]: 0%
- pest or weed control at 250 g/ha [2]: 0%
- pest or weed control at 250 g/ha [3]: 65%
- pest or weed control at 250 g/ha [4]: 100%
- pest or weed control at 125 g/ha ([5]; postemergence): 0%
- pest or weed control at 500 g/ha [5, 17]: 30%
- pest or weed control at 125 g/ha ([6]; postemergence): 20%
- pest or weed control at 500 g/ha [6, 18]: 40%
- plant injury at 500 g/ha [7]: 60%
- plant injury at 125 g/ha [8]: 60%
- Corn plant response rating (crop injury, 0 = no effect, 100 = complete kill) at 500 g/ha [8]: 90%
- pest or weed control at 125 g/ha [9]: 60%
- pest or weed control at 500 g/ha [9]: 90%
- pest or weed control at 125 g/ha [10]: 100%
- pest or weed control at 500 g/ha [10]: 100%
- pest or weed control at 125 g/ha [11]: 20%
- pest or weed control at 500 g/ha [11]: 40%
- pest or weed control at 125 g/ha [12]: 100%
- pest or weed control at 500 g/ha [12]: 100%
- pest or weed control at 125 g/ha [13]: 20%
- pest or weed control at 500 g/ha [13]: 70%
- pest or weed control at 125 g/ha [14]: 60%
- pest or weed control at 500 g/ha [14]: 80%
